{"source": "patent US20040053948A1", "about": "“Compounds, compositions and methods” (Cytokinetics, Inc., priority 2002, published 2004)", "origin": "cited, not measured here", "tested_on": "A549 cells", "details": "data provided by National Cancer Institute, Developmental Therapeutic Program"}
{"smiles": "O=c1[nH]cc(F)c(=O)[nH]1", "note": "[5-fluorouracil]", "values": [{"measurement": "GI50", "value": 1000, "unit": "nM"}]}
{"smiles": "COc1cccc2c1C(=O)c1c(O)c3c(c(O)c1C2=O)C[C@@](O)(C(=O)CO)C[C@@H]3O[C@H]1C[C@H](N)[C@H](O)[C@H](C)O1", "note": "[doxorubicin]", "values": [{"measurement": "GI50", "value": 63, "unit": "nM"}]}
{"smiles": "NC(=O)NO", "note": "[hydroxyurea]", "values": [{"measurement": "GI50", "value": 500000, "unit": "nM"}]}
{"smiles": "CC(=O)O[C@H]1C(=O)[C@@]2(C)[C@H]([C@H](OC(=O)c3ccccc3)[C@]3(O)C[C@H](OC(=O)[C@H](O)[C@@H](NC(=O)c4ccccc4)c4ccccc4)C(C)=C1C3(C)C)[C@]1(OC(C)=O)CO[C@@H]1C[C@@H]2O", "note": "[paclitaxel]", "values": [{"measurement": "GI50", "value": 4, "unit": "nM"}]}
